Like-named read-outs stand apart in the source and are kept apart here.
What was measured:
NET = biological target: T1, NET (Rattus norvegicus, UniProt Q9WTR4); assay: In vitro determination of NET reuptake inhibition ([3H]Nixosetine binding, rat brain cortex membranes)
T1 construct: Cortex from rat brain was collected and homogenised; from tissue; host or cells: rat brain cortex membranes
Description: Cortex from rat brain was collected and homogenised using an Ultra-Turrax T25 and a Dual homogeniser in ice-cold homogenising buffer containing Tris, NaCl and KCl (50 mM, 120 mM and 5 mM, respectively, pH 7.4) prior to dilution to an appropriate protein concentration optimised for specific and non-specific binding. […] Membrane-bound activity was detected by filtration through a Packard Filtermate harvester onto GF/B Unifilterplates, washed with ice-cold Tris-HCl buffer, containing NaCl and KCl (50 mM, 120 mM and 4 mM; pH 7.4; 6×0.5 ml). Filters were allowed to dry for 24 h before adding scintillation fluid. Scintillation fluid was allowed to saturate filters for 24 h before counting in a Topcount scintillation counter. Percentage specific bound and competition binding curves were calculated using S-Plus software (Insightful).

[1] = biological target: T2, human cloned 5-HT2A receptor, expressed in L929 cells (Homo sapiens, UniProt P28223); assay: In vitro radioligand binding affinity for 5-HT2A receptor ([125I]R91150)
T2 construct: expressed in transfected cells; host or cells: L929 cells
T2 sequence (P28223 whole entry): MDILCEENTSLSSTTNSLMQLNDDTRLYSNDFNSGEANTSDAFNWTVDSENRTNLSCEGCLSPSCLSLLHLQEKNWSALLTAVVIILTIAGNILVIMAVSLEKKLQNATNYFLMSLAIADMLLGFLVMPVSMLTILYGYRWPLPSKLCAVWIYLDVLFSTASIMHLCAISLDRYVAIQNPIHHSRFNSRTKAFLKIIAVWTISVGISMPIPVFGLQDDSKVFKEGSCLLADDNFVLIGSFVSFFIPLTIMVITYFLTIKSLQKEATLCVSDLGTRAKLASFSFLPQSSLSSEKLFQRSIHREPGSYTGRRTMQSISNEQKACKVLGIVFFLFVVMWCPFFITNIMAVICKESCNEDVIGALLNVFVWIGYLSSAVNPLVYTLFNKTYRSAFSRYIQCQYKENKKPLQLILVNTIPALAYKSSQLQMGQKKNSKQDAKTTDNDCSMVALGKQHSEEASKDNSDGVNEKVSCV
Description: The interaction of the compounds of Formula (I) with 5-HT2A and 5-HT2C receptors was assessed in in vitro radioligand binding experiments. In general, a low concentration of a radioligand with a high binding affinity for the receptor is incubated with a sample of a tissue preparation enriched in a particular receptor (1 to 5 mg tissue) in a buffered medium (0.2 to 5 ml). During the incubation, the radioligands bind to the receptor. When equilibrium of binding is reached, the receptor bound radioactivity is separated from the non-bound radioactivity, and the receptor bound activity is counted. The interaction of the test compounds with the receptors is assessed in competition binding experiments. Various concentrations of the test compound are added to the incubation mixture containing the tissue preparation and the radioligand. Binding of the radioligand will be inhibited by the test compound in proportion to its binding affinity and its concentration. The affinities of the compounds for the 5-HT2 receptors were measured by means of radioligand binding studies conducted with: (a) human cloned 5-HT2A receptor, expressed in L929 cells using [^125I]R91150 as radioligand and (b) human cloned 5-HT2C receptor, expressed in CHO cells using [^3H]mesulergine as radioligand.

[2] = biological target: T3, human cloned 5-HT2C receptor, expressed in CHO cells (Homo sapiens, UniProt P28335); assay: In vitro radioligand binding affinity for 5-HT2C receptor ([3H]mesulergine)
T3 construct: expressed in transfected cells; host or cells: CHO cells
T3 sequence (P28335 33-458): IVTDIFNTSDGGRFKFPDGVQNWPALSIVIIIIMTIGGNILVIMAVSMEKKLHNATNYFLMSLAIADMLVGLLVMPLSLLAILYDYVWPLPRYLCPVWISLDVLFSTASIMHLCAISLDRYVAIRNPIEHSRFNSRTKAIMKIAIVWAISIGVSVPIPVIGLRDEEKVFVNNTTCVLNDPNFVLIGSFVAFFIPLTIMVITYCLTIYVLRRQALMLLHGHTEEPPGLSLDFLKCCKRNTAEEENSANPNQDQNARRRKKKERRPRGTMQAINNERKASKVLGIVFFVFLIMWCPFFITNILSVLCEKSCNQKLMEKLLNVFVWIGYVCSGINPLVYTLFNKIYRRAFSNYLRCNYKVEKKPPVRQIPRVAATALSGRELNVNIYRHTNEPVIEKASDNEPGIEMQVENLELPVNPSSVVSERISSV
Description: The interaction of the compounds of Formula (I) with 5-HT2A and 5-HT2C receptors was assessed in in vitro radioligand binding experiments. […] During the incubation, the radioligands bind to the receptor. When equilibrium of binding is reached, the receptor bound radioactivity is separated from the non-bound radioactivity, and the receptor bound activity is counted. The interaction of the test compounds with the receptors is assessed in competition binding experiments. Various concentrations of the test compound are added to the incubation mixture containing the tissue preparation and the radioligand. Binding of the radioligand will be inhibited by the test compound in proportion to its binding affinity and its concentration.

[3] = biological target: T4, human Dopamine D2L receptor (Homo sapiens, UniProt P14416); assay: In vitro binding affinity for human D2L receptor ([3H]Spiperone)
T4 construct: expressed in transfected cells; host or cells: CHO cells (frozen membranes)
T4 sequence (P14416 whole entry): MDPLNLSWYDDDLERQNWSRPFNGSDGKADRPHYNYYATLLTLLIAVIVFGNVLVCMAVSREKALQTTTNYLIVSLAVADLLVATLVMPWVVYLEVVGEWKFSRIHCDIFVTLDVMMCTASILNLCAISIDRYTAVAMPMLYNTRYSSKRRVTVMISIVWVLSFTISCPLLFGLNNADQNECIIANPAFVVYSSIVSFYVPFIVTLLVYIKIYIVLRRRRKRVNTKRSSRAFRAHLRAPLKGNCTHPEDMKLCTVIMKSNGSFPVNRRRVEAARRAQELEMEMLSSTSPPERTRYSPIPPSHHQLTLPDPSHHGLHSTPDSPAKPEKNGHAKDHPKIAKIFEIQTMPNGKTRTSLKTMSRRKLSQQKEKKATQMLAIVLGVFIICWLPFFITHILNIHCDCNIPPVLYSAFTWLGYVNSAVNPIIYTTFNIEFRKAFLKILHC
Description: Frozen membranes of human Dopamine D2L receptor-transfected CHO cells were thawed, briefly homogenised using an Ultra-Turrax T25 homogeniser and diluted in Tris-HCl assay buffer containing NaCl, CaCl2, MgCl2, KCl (50, 120, 2, 1, and 5 mM respectively, adjusted to pH 7.7 with HCl) to an appropriate protein concentration optimised for specific and non-specific binding. Radioligand [^3H]Spiperone (NEN, specific activity ˜70 Ci/mmol) was diluted in assay buffer at a concentration of 2 nmol/L. Prepared radioligand (50 μl), along with 50 μl of either the 10% DMSO control, Butaclamol (10-6 mol/l final concentration), or compound of interest, was then incubated (30 min, 37° C.) with 400 μl of the prepared membrane solution. Membrane-bound activity was filtered through a Packard Filtermate harvester onto GF/B Unifilterplates and washed with ice-cold Tris-HCl buffer (50 mM; pH 7.7; 6×0.5 ml). Filters were allowed to dry before adding scintillation fluid and counting in a Topcount scintillation counter. Percentage specific bound and competition binding curves were calculated using S-Plus software (Insightful).

[4] = human cloned 5-HT2A receptor in L929 cells, [125I]R91150, read-out: h-5HT2A (converted)
[5] = human cloned 5-HT2C receptor in CHO cells, [3H]mesulergine, read-out: h-5HT2C (converted)
[6] = human D2L receptor-transfected CHO cell membranes, [3H]Spiperone
[7] = human cloned 5-HT2A receptor in L929 cells, [125I]R91150
[8] = human cloned 5-HT2C receptor in CHO cells, [3H]mesulergine
[9] = human D2L receptor-transfected CHO cell membranes, [3H]Spiperone, read-out: h-D2L (converted)

T1 sequence (Q9WTR4 1-597): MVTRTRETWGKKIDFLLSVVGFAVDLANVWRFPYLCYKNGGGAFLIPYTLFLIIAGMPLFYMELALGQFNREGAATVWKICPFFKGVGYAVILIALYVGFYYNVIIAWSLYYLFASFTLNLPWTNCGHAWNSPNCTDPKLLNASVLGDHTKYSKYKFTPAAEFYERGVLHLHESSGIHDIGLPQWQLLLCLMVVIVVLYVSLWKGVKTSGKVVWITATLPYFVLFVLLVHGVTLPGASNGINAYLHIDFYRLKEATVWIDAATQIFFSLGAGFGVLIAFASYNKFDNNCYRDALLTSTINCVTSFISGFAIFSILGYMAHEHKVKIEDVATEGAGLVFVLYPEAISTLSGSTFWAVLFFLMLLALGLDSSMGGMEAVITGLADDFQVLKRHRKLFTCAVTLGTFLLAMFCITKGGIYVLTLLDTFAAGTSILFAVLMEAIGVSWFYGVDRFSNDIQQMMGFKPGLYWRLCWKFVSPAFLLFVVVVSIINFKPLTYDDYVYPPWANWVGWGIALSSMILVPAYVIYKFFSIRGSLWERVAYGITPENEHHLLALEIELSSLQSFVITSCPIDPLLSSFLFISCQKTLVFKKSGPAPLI

SMILES	IC50 (NET)	IC50 [1, 4]	IC50 [2, 5]	also measured
CN(C)CC1CO[C@@H]2c3cc(F)ccc3Cc3ccccc3[C@@H]12 (mixture of isomers) [compound 47, [(3aR,12bS)-11-fluoro-3,3a,8,12b-tetrahydro-2H-dibenzo[3,4:6,7]cyclohepta[1,2-b]-furan-3-yl]-N,N-dimethylmethanamine]	11 nM	3800 nM	1580 nM	
CN(C)CC1CO[C@H]2c3cc(F)ccc3Cc3ccccc3[C@@H]12 (mixture of isomers) [compound 48, [(3aR,12bR)-11-fluoro-3,3a,8,12b-tetrahydro-2H-dibenzo[3,4:6,7]cyclohepta[1,2-b]-furan-3-yl]-N,N-dimethylmethanamine]	224 nM	6170 nM	3020 nM	
CN[C@@H]1CO[C@@H]2c3cc(F)ccc3Cc3ccccc3[C@H]2C1 (relative stereo) [compound 35, (3S*,4aR*,13bS*)-12-fluoro-N-methyl-2,3,4,4a,9,13b-hexahydrodibenzo[3,4:6,7]-cyclohepta[1,2-b]pyran-3-amine]	> 1000 nM		2630 nM	
CN1CCN2[C@H](C[C@@H]3c4ccccc4Cc4ccc(F)cc4[C@H]32)C1 [14a, (5aS,14bR,15a,R)-7-fluoro-2-methyl-1,3,4,5a,10,14b,15,1 5a-octahydro-2H-dibenzo-[3′,4′:6′,7′]cyclohepta[1′,2′:4,5]pyrrolo[1,2-a]pyrazine]				NET Reuptake Inhibition (NET): 5.50; IC50 [3]: 1.55 nM; IC50 [1]: 1.26 nM; IC50 [2]: 0.891 nM
COC(=O)N1[C@@H](CN(C)C)C[C@@H]2c3ccccc3Cc3ccc(F)cc3[C@H]21 [36a, Methyl (2R,3aR, 12bS)-2-[(dimethylamino)methyl]-11-fluoro-3,3a,8,12b-tetrahydro dibenzo[3,4:6,7]cyclohepta[1,2-b]pyrrole-1(2H)-carboxylate]				NET Reuptake Inhibition (NET): 6.16; h-D2L [3, 6]: <6; h-5HT2A [1, 7]: <6; h-5HT2C [2, 8]: <6
OCCN1CCN(C[C@H]2C[C@@H]3c4ccccc4Cc4ccc(F)cc4[C@H]3N2)CC1 [43a, 2-(4-{[(2R,3aR,12bS)-11-fluoro-1,2,3,3a,8,12b-hexahydrodibenzo[3,4:6,7]cyclohepta-[1,2-b]pyrrol-2-yl]methyl}-1-piperazinyl)ethanol]	> 10000 nM	427 nM	407 nM	
CN(CCO)C[C@H]1C[C@@H]2c3ccccc3Cc3ccc(F)cc3[C@H]2N1 [43b, 2-[{[(2R,3aR,12bS)-11-fluoro-1,2,3,3a,8,12b-exahydrodibenzo[3,4:6,7]cyclohepta[1,2-b]pyrrol-2-yl]methyl}(methyl)amino]-ethanol]				h-D2L [3, 6]: 6.36; h-5HT2A [1, 7]: 7.17; h-5HT2C [2, 8]: 7.05
CN(C)C[C@H]1C[C@@H]2c3ccccc3Cc3ccc(F)cc3[C@H]2N1C [compound 5, [(2R,3aR,12bS)-11-fluoro-1-methyl-1,2,3,3a,8,12b-hexahydrodibenzo[3,4:6,7]cyclohepta[1,2-b]pyrrol-2-yl]-N,N-dimethylmethanamine]		27.5 nM	5.37 nM	IC50 [3, 9]: 132 nM
O=C1CNC[C@H]2C[C@@H]3c4ccccc4Cc4ccc(F)cc4[C@H]3N12 [compound 12, (5aS,14bR,15aR)-7-fluoro-1,2,3,5a,10,14b,15,15a-octahydro-4H-dibenzo[3′,4′:6′,7′]-cyclohepta[1′,2′:4,5]pyrrolo[1,2-a]pyrazin-4-one]	3470 nM			IC50 [3, 9]: 832 nM; IC50 [2]: 58.9 nM
CN1CC(=O)N2[C@H](C[C@@H]3c4ccccc4Cc4ccc(F)cc4[C@H]32)C1 [compound 13, (5aS,14bR,15aR)-7-fluoro-2-methyl-1,2,3,5a,10,14b,15,15a-octahydro-4H-dibenzo-[3′,4′:6′,7′]cyclohepta[1′,2′:4,5]pyrrolo[1,2-a]pyrazin-4-one]				NET Reuptake Inhibition (NET): <5; IC50 [1]: 87.1 nM
OCCN1CCN(C[C@H]2C[C@@H]3c4ccccc4Oc4ccc(F)cc4[C@H]3N2)CC1 [compound 19, 2-(4-{[(2R,3aR,12bS)-11-fluoro-2,3,3a,12b-tetrahydro-1H-dibenzo[2,3 :6,7]oxepino-[4,5-b]pyrrol-2-yl]methyl}-1-piperazinyl)ethanol]	> 10000 nM		4270 nM	IC50 [3, 9]: 112 nM
OC1CCN(C[C@H]2C[C@@H]3c4ccccc4Oc4ccc(F)cc4[C@H]3N2)C1 (stereo partly drawn) [compound 20, 1-{[(2R,3aR,12bS)-11-fluoro-2,3,3a,12b-tetrahydro-1H-dibenzo[2,3:6,7]oxepino[4,5-b]pyrrol-2-yl]methyl}-3-pyrrolidinol]	417 nM		110 nM	IC50 [3, 9]: 355 nM
CN(C)C[C@@H]1C[C@@H]2c3ccccc3Cc3ccc(F)cc3[C@H]2S1(=O)=O [compound 22, [(2S,3aR,12bS)-11-fluoro-1,1-dioxido-3,3a,8, 12b-tetrahydro-2H-dibenzo[3,4:6,7]-cyclohepta[1,2-b]thien-2-yl]-N,N-dimethylmethanamine]	4790 nM	8510 nM	1350 nM	
CN(C)C[C@@H]1C[C@@H]2c3ccccc3Cc3ccc(F)cc3[C@H]2[S@+]1[O-] [compound 25, [(2S,3aR,12bS)-11-fluoro-1-oxido-3,3a,8,12b-tetrahydro-2H-dibenzo[3,4:6,7]cyclohepta[1,2-b]thien-2-yl]-N,N-dimethylmethanamine]	2880 nM	> 10000 nM	2240 nM	
CN(C)C[C@H]1C[C@@H]2c3ccccc3Cc3ccc(F)cc3[C@H]2[S@+]1[O-] [compound 28, [(2R,3aR,12bS)-11-fluoro-1-oxido-3,3a,8,12b-tetrahydro-2H-dibenzo[3,4:6,7]cyclohepta[1,2-b]thien-2-yl]-N,N-dimethylmethanamine]	145 nM	7760 nM	1780 nM	
Fc1ccc2c(c1)[C@H]1N[C@@H](CN3CCOCC3)C[C@@H]1c1ccccc1C2 [compound 42, (2R,3aR,12bS)-11-fluoro-2-(4-morpholinylmethyl)-1,2,3,3a,8,12b-hexahydrodibenzo-[3,4:6,7]cyclohepta[1,2-b]pyrrole]	5500 nM	631 nM	550 nM	
COC(=O)N1[C@@H](CN(C)C)CC[C@@H]2c3ccccc3Cc3ccc(F)cc3[C@H]21 [compound 45, Methyl (2R,4aR,13bS)-2-[(dimethylamino)methyl]-12-fluoro-2,3,4,4a,9,13b-hexahydro-1H-dibenzo[3,4:6,7]cyclohepta[1,2-b]pyridine-1-carboxylate]	794 nM		2240 nM	IC50 [3, 9]: > 10000 nM

Source: patent publication US20090023721A1, “Novel Substituted Tetracyclic Tetrahydrofuran, Pyrrolidine and Tetrahydrothiophene Derivatives and Their Use as a Medicament” (priority 2005, published 2009)
